What was measured:
[1] = Dissociation constant, pKa of the compound at pH < 5; assay type: physicochemical
Huh-7 = test: Cellular uptake in human HuH7 cells at 1 uM after 2 hrs by fluorescence microscopic analysis; assay type: ADME, cell-based; conditions: huh-7, 2 h
[2] = Drug uptake in human HuH7 cells assessed as localization in cytosol at 1 uM after 2 hrs by fluorescence microscopic analysis; assay type: ADME, cell-based, Huh-7
[3] = Dissociation constant, pKa of the compound at pH 4.8 to 8.2; assay type: physicochemical

Structure (SMILES)	pKa [1]	Drug uptake (Huh-7)	Drug uptake [2]	pKa [3]
Nc1ccc(C#Cc2c3ccccc3c(C#Cc3cn([C@H]4C[C@H](O)[C@@H](CO)O4)c(=O)[nH]c3=O)c3ccccc23)cc1	3.9	–	–	–
CNc1ccc(C#Cc2c3ccccc3c(C#Cc3cn([C@H]4C[C@H](O)[C@@H](CO)O4)c(=O)[nH]c3=O)c3ccccc23)cc1	3.7	Not Active	–	–
CCC(CC)Nc1ccc(C#Cc2c3ccccc3c(C#Cc3cn([C@H]4C[C@H](O)[C@@H](CO)O4)c(=O)[nH]c3=O)c3ccccc23)cc1	3.7	–	–	–
O=c1[nH]c(=O)n([C@H]2C[C@H](O)[C@@H](CO)O2)cc1C#Cc1c2ccccc2c(C#Cc2ccc(NC3CCCCC3)cc2)c2ccccc12	3.9	–	–	–
CCCCNc1ccc(C#Cc2c3ccccc3c(C#Cc3cn([C@H]4C[C@H](O)[C@@H](CO)O4)c(=O)[nH]c3=O)c3ccccc23)cc1	3.5	–	–	–
CC(C)(C)Nc1ccc(C#Cc2c3ccccc3c(C#Cc3cn([C@H]4C[C@H](O)[C@@H](CO)O4)c(=O)[nH]c3=O)c3ccccc23)cc1	6.1	–	Active	6.1
CN(C)c1ccc(C#Cc2c3ccccc3c(C#Cc3cn([C@H]4C[C@H](O)[C@@H](CO)O4)c(=O)[nH]c3=O)c3ccccc23)cc1	3	–	–	–
